Values belong to the compound of their own block, whether it stands above or below them. Activity calls are given as the source filed them. The calls are words filed in the database; no cut-off is given here. Square brackets hold non-standard residues; d marks the D form. Peptide text beside a SMILES is read from it. * marks the point of attachment. ξ: configuration not given here. X1 = C[N+]1=C(/C=C/C=C2\N(CCCCCC(=O)*)c3ccccc3C2(C)C)C(C)(C)c2ccccc21; PEG2 = NCCOCCOCCC(=O)O; ξD = NC(CC(=O)O)C(=O)O
Tests used:
[1] = molecular target: T1, Type-1 angiotensin II receptor (Homo sapiens) (UniProt P30556); assay: Agonist activity at Flag-tagged AT1R (unknown origin) extracted from HEK293T cell membrane co expressing YPET-ARRB1 assessed as beta-arrestin 1 recruitment using NanoGlo as substrate preincubated for 30 mins followed by substrate addition for 10 mins by BRET assay; assay type: functional, cell membranes; settings: HEK293
T1 sequence (whole entry): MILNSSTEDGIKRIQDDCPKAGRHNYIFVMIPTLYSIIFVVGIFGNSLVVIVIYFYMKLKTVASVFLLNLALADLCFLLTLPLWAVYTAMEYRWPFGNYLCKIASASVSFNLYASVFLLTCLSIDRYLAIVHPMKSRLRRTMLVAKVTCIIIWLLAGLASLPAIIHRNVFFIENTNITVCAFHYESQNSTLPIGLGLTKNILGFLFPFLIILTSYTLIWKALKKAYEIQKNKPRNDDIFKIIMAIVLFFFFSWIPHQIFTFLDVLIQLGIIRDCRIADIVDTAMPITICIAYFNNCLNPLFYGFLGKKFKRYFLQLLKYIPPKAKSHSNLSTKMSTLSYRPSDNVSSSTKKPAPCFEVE

Cerebral artery [2] = assay: Vaso-constriction activity in male wistar rat middle cerebral artery assessed as arterial contraction at 1 uM in presence of losartan; assay type: functional, tissue-based
[3] = Fluorescence property of compound in HEPES buffer assessed as quantum yield; assay type: physicochemical
[4] = molecular target: T1, Type-1 angiotensin II receptor (Homo sapiens); assay: Agonist activity at Flag-tagged AT1R (unknown origin) extracted from HEK293 cell membrane co expressing YPET-ARRB2 assessed as beta-arrestin 2 recruitment using NanoGlo as substrate preincubated for 30 mins followed by substrate addition for 10 mins by BRET assay; assay type: functional, cell membranes
[5] = molecular target: T1, Type-1 angiotensin II receptor (Homo sapiens); assay: Induction of human NLuc-tagged AT1R (unknown origin) internalization in HEK293 cells co expressing venus-MP using NanoGlo as substrate preincubated for 30 mins followed by substrate addition for 10 mins by BRET assay; assay type: functional
Cerebral artery [6] = assay: Vaso-constriction activity in male wistar rat middle cerebral artery assessed as arterial contraction at 1 uM; assay type: functional, tissue-based
Cerebral artery [7] = assay: Vaso-constriction activity in male wistar rat middle cerebral artery assessed as arterial contraction at 10 nM; assay type: functional, tissue-based
[8] = molecular target: T2, Type-1 angiotensin II receptor (Homo sapiens, UniProt P30556); assay: Binding affinity to human AT1R extracted from HEK293T cell membrane assessed as inhibition constant in presence of [125I][Sar1 Ile8]-angiotensin II by competitive radioligand binding assay; assay type: cell membranes; settings: read-out: Ki
T2 sequence (P30556 whole entry): T1 sequence (whole entry)

[9] = molecular target: T2, Type-1 angiotensin II receptor; assay: Antagonist activity at Flag-tagged AT1R (unknown origin) extracted from HEK293 cell membrane co expressing YPET-ARRB1 assessed as beta-arrestin 1 recruitment using NanoGlo as substrate preincubated for 30 mins followed by substrate addition for 10 mins by BRET assay; assay type: functional, cell membranes
[10] = molecular target: T1, Type-1 angiotensin II receptor (Homo sapiens); assay: Binding affinity to Flag-tagged AT1R (unknown origin) extracted from HEK293 cell membrane assessed as increase in median red fluorescence intensity at 1 nM incubated for 15 mins by flow cytometric analysis; assay type: cell membranes; settings: filed as antagonist
[11] = molecular target: T2, Type-1 angiotensin II receptor; assay: Antagonist activity at Flag-tagged AT1R (unknown origin) extracted from HEK293 cell membrane co expressing YPET-ARRB2 assessed as beta-arrestin 2 recruitment using NanoGlo as substrate preincubated for 30 mins followed by substrate addition for 10 mins by BRET assay; assay type: functional, cell membranes
[12] = molecular target: T2, Type-1 angiotensin II receptor; assay: Binding affinity to GFP-tagged AT1R (unknown origin) extracted from HEK293 cell membrane assessed as dissociation constant; assay type: cell membranes
[13] = molecular target: T3, Type-2 angiotensin II receptor (Homo sapiens) (UniProt P50052); assay: Binding affinity to GFP-tagged AT2R (unknown origin) extracted from HEK293 cell membrane assessed as fluorescent signal in plasma membrane incubated for 15 mins by confocal microscopic analysis; assay type: cell membranes
T3 sequence (whole entry): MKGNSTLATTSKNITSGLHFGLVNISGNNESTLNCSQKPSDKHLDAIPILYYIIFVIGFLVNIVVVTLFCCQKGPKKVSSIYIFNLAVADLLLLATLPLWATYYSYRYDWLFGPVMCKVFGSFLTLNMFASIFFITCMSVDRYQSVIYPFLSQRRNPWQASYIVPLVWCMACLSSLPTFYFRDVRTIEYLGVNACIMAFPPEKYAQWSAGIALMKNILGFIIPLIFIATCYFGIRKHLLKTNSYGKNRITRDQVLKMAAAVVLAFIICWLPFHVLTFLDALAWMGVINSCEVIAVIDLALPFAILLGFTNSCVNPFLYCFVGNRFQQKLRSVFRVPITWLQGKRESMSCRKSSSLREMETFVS

Homo sapiens = species on record: Homo sapiens; assay: Selectivity index, ratio of Ki for binding affinity to human AT2R extracted from HEK293T cell membrane in presence of [125I][Sar1 Ile8]-angiotensin II by competitive radioligand binding assay to Ki for binding affinity to human AT1R extracted from HEK293T cell membrane in presence of [125I][Sar1 Ile8]-angiotensin II by competitive radioligand binding assay
[14] = molecular target: T1, Type-1 angiotensin II receptor (Homo sapiens); assay: Induction of human NLuc-tagged AT1R (unknown origin) internalization in HEK293 cells co expressing venus-MP assessed as inhibition of AgII-induced AT1R internalization using NanoGlo as substrate preincubated for 30 mins followed by substrate addition for 10 mins by BRET assay; assay type: functional
[15] = molecular target: T2, Type-1 angiotensin II receptor; assay: Antagonist activity at Flag-tagged AT1R (unknown origin) extracted from HEK293 cell membrane assessed as increase in intracellular calcium incubated for 30 mins by microplate reader analysis; assay type: functional, cell membranes
[16] = molecular target: T4, Type-2 angiotensin II receptor (Homo sapiens, UniProt P50052); assay: Binding affinity to human AT2R extracted from HEK293T cell membrane assessed as inhibition constant in presence of [125I][Sar1 Ile8]-angiotensin II by competitive radioligand binding assay; assay type: cell membranes
T4 sequence (P50052 whole entry): T3 sequence (whole entry)

[17] = molecular target: T1, Type-1 angiotensin II receptor (Homo sapiens); assay: Binding affinity to Flag-tagged AT1R (unknown origin) extracted from HEK293 cell membrane assessed as increase in median red fluorescence intensity at > 30 nM incubated for 30 mins by flow cytometric analysis; assay type: cell membranes
[18] = molecular target: T1, Type-1 angiotensin II receptor (Homo sapiens); assay: Binding affinity to GFP-tagged AT1R (unknown origin) extracted from HEK293 cell membrane assessed as fluorescent signal in plasma membrane incubated for 15 mins by confocal microscopic analysis; assay type: cell membranes; settings: filed as antagonist
[19] = molecular target: T1, Type-1 angiotensin II receptor (Homo sapiens); assay: Binding affinity to human GFP-tagged AT1R (unknown origin) extracted from HEK293 cell membrane assessed as colocalization of AT1R in plasma membrane at 30 nM preincubated with losartan at 10 uM followed by compound addition for 30 mins by epifluorescence microscopic analysis; assay type: cell membranes; settings: filed as antagonist

Activity [1]: inactive | Activity [3]: 0.064 | Activity [4]: inactive | Activity [5]: inactive
SMILES: CC[C@H](C)[C@H](NC(=O)[C@@H](NC(=O)C(CC(=O)O)NC(=O)[C@@H]1CCCN1C(=O)[C@H](Cc1c[nH]cn1)NC(=O)[C@H](Cc1ccccc1)NC(=O)[C@H](Cc1ccc(O)cc1)NC(=O)CCOCCOCCNC(=O)CCCCCN1/C(=C\C=C\C2=[N+](C)c3ccccc3C2(C)C)C(C)(C)c2ccccc21)C(C)C)C(=O)N[C@@H](CCCNC(=N)N)C(=O)O (stereo partly drawn) ({X1-PEG2}-YFHP[ξD]VIR-OH)
Activity (Cerebral artery [2]): Active

Activity [1]: inactive | Activity [3]: 0.101 | Activity [4]: inactive | Activity [5]: inactive
SMILES: CC[C@H](C)[C@H](NC(=O)[C@@H](NC(=O)[C@H](CC(=O)O)NC(=O)[C@@H]1CCCN1C(=O)[C@H](Cc1c[nH]cn1)NC(=O)[C@H](Cc1ccccc1)NC(=O)[C@H](Cc1ccc(O)cc1)NC(=O)CCCCCN1/C(=C\C=C\C2=[N+](C)c3ccccc3C2(C)C)C(C)(C)c2ccccc21)C(C)C)C(=O)N[C@@H](CCCNC(=N)N)C(=O)O (X1-YFHPDVIR-OH)
Activity (Cerebral artery [2]): Active

Activity [3]: 0.08
SMILES: CC[C@H](C)[C@H](NC(=O)[C@H](Cc1ccc(O)cc1)NC(=O)[C@@H](NC(=O)[C@H](CCCNC(=N)N)NC(=O)[C@H](CC(=O)O)NC(=O)CCCCCN1/C(=C\C=C\C2=[N+](C)c3ccccc3C2(C)C)C(C)(C)c2ccccc21)C(C)C)C(=O)N[C@@H](Cc1c[nH]cn1)C(=O)N1CCC[C@H]1C(=O)N[C@@H](Cc1ccccc1)C(=O)O
Activity (Cerebral artery [6]): Active | Activity (Cerebral artery [7]): Active

Ki [8]: 10.7 nM | EC50 [9]: Active | Activity [10]: Active | EC50 [11]: Active | Kd [12]: ~30 nM | Activity [13]: inactive | Ratio Ki (Homo sapiens): 521 | Activity [14]: Dose-dependent-effect | EC50 [15]: Active | Ki ([16]; read-out: Ki): 5570 nM | Ki ([16]; read-out: pKi (converted)): 3020 nM | Activity [17]: inactive | Activity [3]: 0.232 | Activity [18]: Active | Activity [19]: Active
SMILES: CCCCc1nc(Cl)c(C(=O)NCCOCCOCCNC(=O)CCCCCN2/C(=C/C=C/C3=[N+](C)c4ccccc4C3(C)C)C(C)(C)c3ccccc32)n1Cc1ccc(-c2ccccc2-c2nn[nH]n2)cc1.F[B-](F)(F)F

From ChEMBL document CHEMBL6078647 (J Med Chem, 2024)
